# Results taken from patent US4992534A, “3'-O-,5'-O-derivatives of 2'-deoxy-5-fluorouridine” (Otsuka Pharmaceutical Co., Ltd., priority 1987, dated 1991).
# Test system: Sarcoma-180
# Test: Antitumor test against subcutaneously transplanted Sarcoma-180 in ICR mice (Pharmacological Test 1)
# Assay type: in vivo
# Conditions: Sarcoma-180 s.c. in ICR mice, tail vein once a day for 7 consecutive days from 24 h after transplantation, tumor weight on 10th day
# Protocol: Sarcoma-180 subcultured in ascites of ICR mice was diluted with a physiological saline and subcutaneously transplanted into the backs of ICR mice in an amount of 2 ×10^7 cells each. Twenty-four hours after the transplantation, a test compound dissolved in sterilized physiological saline was administered to the tail vein of each of the mice once a day for 7 consecutive days.
# The solid tumor was isolated from under the dorsal skin of mice on the 10th day after the transplantation to measure the weight of the tumor There was determined the ratio (T/C) of the weight of tumor (T) of the test compound group to the weight of tumor (C) of the control group.
Compound,"ED50 (Mus musculus, sc, 240 h, read-out: 50% tumor inhibition dose (ED50), dose at which T/C of tumor weight is 0.5) [mg/kg]","50% tumor inhibition dose (ED50), dose at which T/C of tumor weight is 0.5 [mg/kg]"
"Cl.NCC(=O)OC[C@H]1O[C@@H](n2cc(F)c(=O)[nH]c2=O)C[C@@H]1OCc1ccc(Cl)s1 [Test Compound 1, 3'-O-(5-chloro-2-thenyl)-2'-deoxy-5-fluoro-5'-O-glycyluridine hydrochloride]",5,
3'-O-(5-bromo-2-thenyl)-2'-deoxy-5-fluoro-5'-O- glycyluridine hydrochloride [Test Compound 2],,7
